Species: Rattus norvegicus
Test: Open TG-GATES - Regimen: Daily Repeat
Format: toxicity, organism-based, Sprague-Dawley
Design: regimen Daily Repeat, gender Male, age 6 weeks
Conditions: in vivo, po, 0 mg/kg, route gavage, dose level Control; for APTT / Bas / Eos / Fbg / Hb / Ht / Lym / MCH / MCHC / MCV / Mono / Neu / PT / Plat / RBC / Ret / WBC: tissue Blood
[1] = 72 h, tissue Kidney, time 3 day
[2] = 72 h, tissue Plasma, time 3 day

SMILES: CCc1oc2ccccc2c1C(=O)c1cc(Br)c(O)c(Br)c1 [BENZBROMARONE]
- TERMINAL_BW (72 h, time 3 day): 230.4 g
- APTT (72 h, time 3 day): 16.2 s
- Bas (72 h, time 3 day): 0%
- Eos (72 h, time 3 day): 1.6%
- Fbg (72 h, time 3 day): 232 mg/dL
- Hb (72 h, time 3 day): 14.5 g/dL
- Ht (72 h, time 3 day): 42.7%
- Lym (72 h, time 3 day): 73%
- MCH (72 h, time 3 day): 22.5 pg
- MCHC (72 h, time 3 day): 34%
- MCV (72 h, time 3 day): 66.2 fL
- Mono (72 h, time 3 day): 6.6%
- Neu (72 h, time 3 day): 18.6%
- PT (72 h, time 3 day): 11.7 s
- Plat (72 h, time 3 day): 111.1 x10_4/uL
- RBC (72 h, time 3 day): 645.6 x10_4/ul
- Ret (72 h, time 3 day): 7.2%
- WBC (72 h, time 3 day): 113.8 x10_2/uL
- KIDNEY_L [1]: 1 g
- KIDNEY_R [1]: 1 g
- KIDNEY_TOTAL [1]: 2 g
- LIVER (72 h, tissue Liver, time 3 day): 11.1 g
- A/G [2]: 2
- ALP [2]: 921.2 IU/L
- ALT [2]: 34.6 IU/L
- AST [2]: 62.8 IU/L
- BUN [2]: 16.4 mg/dL
- CRE [2]: 0.5 mg/dL
- Ca [2]: 9.9 mg/dL
- Cl [2]: 106.3 meq/L
- DBIL [2]: 0.008 mg/dL
- GLC [2]: 197 mg/dL
- IP [2]: 7.5 mg/dL
- K [2]: 5.1 meq/L
- LDH [2]: 84.6 IU/L
- Na [2]: 139.5 meq/L
- PL [2]: 156.8 mg/dL
- RALB [2]: 3.9 g/dL
- TBIL [2]: 0.3 mg/dL
- TC [2]: 82 mg/dL
- TG [2]: 106 mg/dL
- TP [2]: 5.9 g/dL
- gamma-GTP [2]: 0.6 IU/L
- TERMINAL_BW ([…], time 7 day): 262.9 g
- TERMINAL_BW ([…], time 14 day): 315 g
- TERMINAL_BW ([…], time 28 day): 382.2 g
- APTT ([…], time 7 day): 16.8 s
- Bas ([…], time 7 day): 0%
- Eos ([…], time 7 day): 1%
- Fbg ([…], time 7 day): 236.4 mg/dL
- Hb ([…], time 7 day): 14.5 g/dL
- Ht ([…], time 7 day): 42.7%
- Lym ([…], time 7 day): 80%
- MCH ([…], time 7 day): 21.4 pg
- MCHC ([…], time 7 day): 33.8%
- MCV ([…], time 7 day): 63.3 fL
- Mono ([…], time 7 day): 6.6%
- Neu ([…], time 7 day): 12.4%
- PT ([…], time 7 day): 11.9 s
- Plat ([…], time 7 day): 113.2 x10_4/uL
- RBC ([…], time 7 day): 675 x10_4/ul
- Ret ([…], time 7 day): 5.5%
- WBC ([…], time 7 day): 109.7 x10_2/uL
- APTT ([…], time 14 day): 16 s
- Bas ([…], time 14 day): 0%
- Eos ([…], time 14 day): 1.6%
- Fbg ([…], time 14 day): 223.8 mg/dL
- Hb ([…], time 14 day): 14.7 g/dL
- Ht ([…], time 14 day): 43.8%
- Lym ([…], time 14 day): 77.4%
- MCH ([…], time 14 day): 20.9 pg
- MCHC ([…], time 14 day): 33.6%
- MCV ([…], time 14 day): 62.3 fL
- Mono ([…], time 14 day): 4.4%
- Neu ([…], time 14 day): 16.8%
- PT ([…], time 14 day): 11.8 s
- Plat ([…], time 14 day): 110.7 x10_4/uL
- RBC ([…], time 14 day): 703.4 x10_4/ul
- Ret ([…], time 14 day): 4.7%
- WBC ([…], time 14 day): 138.1 x10_2/uL
- APTT ([…], time 28 day): 16.6 s
- Bas ([…], time 28 day): 0%
- Eos ([…], time 28 day): 1%
- Fbg ([…], time 28 day): 230.2 mg/dL
- Hb ([…], time 28 day): 15.5 g/dL
- Ht ([…], time 28 day): 46.5%

From ChEMBL document CHEMBL3885861, “Open TG-GATES”
